The structures appear in SMILES notation.

T1 sequence (Q9HBA0 whole entry): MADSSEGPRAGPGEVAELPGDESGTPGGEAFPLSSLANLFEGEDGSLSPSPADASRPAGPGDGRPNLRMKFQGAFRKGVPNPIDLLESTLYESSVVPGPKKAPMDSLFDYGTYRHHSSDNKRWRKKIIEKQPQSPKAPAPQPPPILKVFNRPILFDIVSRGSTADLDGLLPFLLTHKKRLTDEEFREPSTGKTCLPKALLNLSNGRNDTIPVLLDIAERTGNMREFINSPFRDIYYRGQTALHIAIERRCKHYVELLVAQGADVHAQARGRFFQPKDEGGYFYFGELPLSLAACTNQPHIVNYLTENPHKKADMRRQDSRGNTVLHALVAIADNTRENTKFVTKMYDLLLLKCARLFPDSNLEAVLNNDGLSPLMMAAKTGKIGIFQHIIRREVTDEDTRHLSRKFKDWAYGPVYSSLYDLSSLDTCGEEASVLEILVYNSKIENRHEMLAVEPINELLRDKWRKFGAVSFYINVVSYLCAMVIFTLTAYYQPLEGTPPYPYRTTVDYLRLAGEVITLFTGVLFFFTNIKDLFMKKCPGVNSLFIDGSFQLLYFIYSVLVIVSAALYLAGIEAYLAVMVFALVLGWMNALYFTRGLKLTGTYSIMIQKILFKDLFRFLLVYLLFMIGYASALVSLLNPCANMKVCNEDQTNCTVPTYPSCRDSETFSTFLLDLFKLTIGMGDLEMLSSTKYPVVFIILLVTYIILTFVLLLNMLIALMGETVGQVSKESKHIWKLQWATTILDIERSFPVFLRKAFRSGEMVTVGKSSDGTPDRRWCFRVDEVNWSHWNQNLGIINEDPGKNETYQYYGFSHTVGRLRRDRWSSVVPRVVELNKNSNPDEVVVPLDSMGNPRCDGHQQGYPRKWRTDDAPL

This test addresses T1, human TRPV4 (Homo sapiens, UniProt Q9HBA0).
T1 construct: expressed in transfected cells; host or cells: BHK/AC9 cells transduced with BacMam virus
In words: FLIPR assay for hTRPV4 expressed in BHK cells: inhibition of Agonist Compound-induced calcium signal. As to conditions: hTRPV4 in BHK/AC9 cells, FLIPR calcium signal, agonist at EC80; reported as range class; read-out: IC50. It counts as cell-based. The method, boiled down:
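Calcium influx through TRPV4 tracked by Fluo-4 fluorescence on FLIPR. Cells: BHK/AC9 transduced with BacMam-hTRPV4 at MOI 78, 24 h culture post-plating (15,000 cells/well). Dye loading: 2 μM Fluo-4 AM with 500 μM Brilliant Black quencher, 1-1.5 h, room temperature, dark.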
Regarding `N#Cc1ccc(O[C@H]2CN(S(=O)(=O)c3ccc(C(F)(F)F)cc3C#N)C[C@@]2(O)CO)cc1F` [Example 1, 4-(((3S,4R)-1-((2-cyano-4-(trifluoromethyl)phenyl)sulfonyl)-4-hydroxy-4-(hydroxymethyl)pyrrolidin-3-yl)oxy)-2-fluorobenzonitrile], the IC50 was 0.1 to 10 nM.

As to `N#Cc1ccc(O[C@H]2CN(S(=O)(=O)c3ccc(Cl)cc3C#N)C[C@]2(O)CO)cc1F` [Example 139, 4-(((3S,4S)-1-((4-chloro-2-cyanophenyl)sulfonyl)-4-hydroxy-4-(hydroxymethyl)pyrrolidin-3-yl)oxy)-2-fluorobenzonitrile], the half-maximal inhibitory concentration (IC50) lay within 0.1 to 10 nM. For `N#Cc1ccc(O[C@H]2CN(S(=O)(=O)c3ccc(C(F)(F)F)cc3C#N)C[C@@]2(O)CO)c(OCC(F)(F)F)c1` [Example 167, 2-(((3R,4S)-4-(4-cyano-2-(2,2,2-trifluoroethoxy)phenoxy)-3-hydroxy-3-(hydroxymethyl)pyrrolidin-1-yl)sulfonyl)-5-(trifluoromethyl)benzonitrile] the value was 0.1 to 10 nM; for `C[C@H](O)[C@]1(O)CN(S(=O)(=O)c2ccc(Cl)cc2Cl)C[C@@H]1Oc1ccc(C#N)c(F)c1` [Example 204, 4-(((3S,4R)-1-((2,4-dichlorophenyl)sulfonyl)-4-hydroxy-4-((S)-1-hydroxyethyl)pyrrolidin-3-yl)oxy)-2-fluorobenzonitrile], 0.1 to 10 nM; for `N#Cc1cc(O)c(O[C@H]2CN(S(=O)(=O)c3ccc(C(F)(F)F)cc3C#N)C[C@@]2(O)CO)cc1F` [Example 162, 4-(((3S,4R)-1-((2-cyano-4-(trifluoromethyl)phenyl)sulfonyl)-4-hydroxy-4-(hydroxymethyl)pyrrolidin-3-yl)oxy)-2-fluoro-5-hydroxybenzonitrile], 0.1 to 10 nM. Consider `N#Cc1ccc(S(=O)(=O)N2C[C@H](Oc3ccc(C#N)c(F)c3)[C@](O)(CO)C2)nc1` [Example 231, 6-(((3R,4S)-4-(4-cyano-3-fluorophenoxy)-3-hydroxy-3-(hydroxymethyl)pyrrolidin-1-yl)sulfonyl)nicotinonitrile], for which the half-inhibitory concentration (IC50) fell in the range of 10 to 100 nM. The value for `N#Cc1ccc(O[C@H]2CN(S(=O)(=O)c3ccc(Cl)cc3Cl)C[C@]2(O)CO)cc1F` [Example 142, 4-(((3S,4S)-1-((2,4-dichlorophenyl)sulfonyl)-4-hydroxy-4-(hydroxymethyl)pyrrolidin-3-yl)oxy)-2-fluorobenzonitrile] was 10 to 100 nM.

Turning to `N#Cc1ccc(O[C@H]2CN(S(=O)(=O)c3ccc(OC(F)(F)F)cc3Cl)C[C@@]2(O)CO)cc1F` [Example 66, 4-(((3S,4R)-1-((2-chloro-4-(trifluoromethoxy)phenyl)sulfonyl)-4-hydroxy-4-(hydroxymethyl)pyrrolidin-3-yl)oxy)-2-fluorobenzonitrile], the concentration for half-maximal inhibition (IC50) was 10 to 100 nM.

Consider `N#Cc1ccc(O[C@H]2CN(S(=O)(=O)c3ccc(Cl)nc3Cl)C[C@@]2(O)CO)cc1F` [Example 92, 4-(((3S,4R)-1-((2,6-dichloropyridin-3-yl)sulfonyl)-4-hydroxy-4-(hydroxymethyl)pyrrolidin-3-yl)oxy)-2-fluorobenzonitrile], for which the 50% inhibitory concentration (IC50) fell in the range of 0.1 to 10 nM. Regarding `N#Cc1ccc(S(=O)(=O)N2C[C@H](Oc3ccc(C#N)cc3OCC(F)(F)F)[C@](O)(CO)C2)cc1` [Example 172, 4-(((3S,4R)-1-((4-cyanophenyl)sulfonyl)-4-hydroxy-4-(hydroxymethyl)pyrrolidin-3-yl)oxy)-3-(2,2,2-trifluoroethoxy)benzonitrile], the half-maximal inhibitory concentration (IC50) lay within 10 to 100 nM. For `COc1cc(C#N)ccc1S(=O)(=O)N1C[C@H](Oc2ccc(C#N)c(F)c2)[C@](O)(CO)C1` [Example 104, 4-(((3S,4R)-1-((4-cyano-2-methoxyphenyl)sulfonyl)-4-hydroxy-4-(hydroxymethyl)pyrrolidin-3-yl)oxy)-2-fluorobenzonitrile] the value was 10 to 100 nM; for `N#Cc1ccc(O[C@H]2CN(S(=O)(=O)c3ccc(I)cc3C#N)C[C@@]2(O)CO)cc1F` [Example 114, 4-(((3S,4R)-1-((2-cyano-4-iodophenyl)sulfonyl)-4-hydroxy-4-(hydroxymethyl)pyrrolidin-3-yl)oxy)-2-fluorobenzonitrile], 0.1 to 10 nM. For `CC#Cc1ccc(S(=O)(=O)N2C[C@H](Oc3ccc(C#N)c(F)c3)[C@](O)(CO)C2)cn1` [Example 223, 2-fluoro-4-(((3S,4R)-4-hydroxy-4-(hydroxymethyl)-1-((6-(prop-1-yn-1-yl)pyridin-3-yl)sulfonyl)pyrrolidin-3-yl)oxy)benzonitrile] the value was 10 to 100 nM; for `C[C@@H](O)[C@]1(O)CN(S(=O)(=O)c2ccc(C(F)(F)F)nc2)C[C@@H]1Oc1ccc(C#N)c(F)c1` [Example 206, 2-fluoro-4-(((3S,4R)-4-hydroxy-4-((R)-1-hydroxyethyl)-1-((6-(trifluoromethyl)pyridin-3-yl)sulfonyl)pyrrolidin-3-yl)oxy)benzonitrile], 10 to 100 nM.

On to `CC(C)COc1cc(C#N)c(F)cc1O[C@H]1CN(S(=O)(=O)c2ccc(C#N)cc2)C[C@@]1(O)CO` [Example 180, 4-(((3S,4R)-1-((4-cyanophenyl)sulfonyl)-4-hydroxy-4-(hydroxymethyl)pyrrolidin-3-yl)oxy)-2-fluoro-5-isobutoxybenzonitrile], for which the IC50 lay within 0.1 to 10 nM. The value for `CC(C)Oc1cc(C#N)c(F)cc1O[C@H]1CN(S(=O)(=O)c2ccc(C(F)(F)F)cc2C#N)C[C@@]1(O)CO` [Example 161, 4-(((3S,4R)-1-((2-cyano-4-(trifluoromethyl)phenyl)sulfonyl)-4-hydroxy-4-(hydroxymethyl)pyrrolidin-3-yl)oxy)-2-fluoro-5-isopropoxybenzonitrile] was 0.1 to 10 nM. Consider `N#Cc1ccc(O[C@H]2CN(S(=O)(=O)c3ccc(C(F)(F)F)s3)C[C@@]2(O)CO)cc1F` [Example 112, 2-fluoro-4-(((3S,4R)-4-hydroxy-4-(hydroxymethyl)-1-((5-(trifluoromethyl)thiophen-2-yl)sulfonyl)pyrrolidin-3-yl)oxy)benzonitrile], for which the IC50 lay within 10 to 100 nM.

As to `CC(C)(O)[C@]1(O)CN(S(=O)(=O)c2ccc(Cl)cn2)C[C@@H]1Oc1ccc(C#N)c(F)c1` [Example 214, 4-(((3S,4S)-1-((5-chloropyridin-2-yl)sulfonyl)-4-hydroxy-4-(2-hydroxypropan-2-yl)pyrrolidin-3-yl)oxy)-2-fluorobenzonitrile], the IC50 was in the range of 10 to 100 nM. For `N#Cc1ccc(O[C@H]2CN(S(=O)(=O)c3c(Cl)cc(Cl)cc3Cl)C[C@@]2(O)CO)cc1F` [Example 77, 2-fluoro-4-(((3S,4R)-4-hydroxy-4-(hydroxymethyl)-1-((2,4,6-trichlorophenyl)sulfonyl)pyrrolidin-3-yl)oxy)benzonitrile] the value was 10 to 100 nM; for `Cc1cc(C#N)ccc1S(=O)(=O)N1C[C@H](Oc2ccc(C#N)c(F)c2)[C@](O)(CO)C1` [Example 80, 4-(((3S,4R)-1-((4-cyano-2-methylphenyl)sulfonyl)-4-hydroxy-4-(hydroxymethyl)pyrrolidin-3-yl)oxy)-2-fluorobenzonitrile], 0.1 to 10 nM; for `N#Cc1cccc(O[C@H]2CN(S(=O)(=O)c3ccc(C(F)(F)F)cc3C#N)C[C@@]2(O)CO)c1` [Example 53, 2-(((3R,4S)-4-(3-cyanophenoxy)-3-hydroxy-3-(hydroxymethyl)pyrrolidin-1-yl)sulfonyl)-5-(trifluoromethyl)benzonitrile], 10 to 100 nM. `N#Cc1cc(F)ccc1S(=O)(=O)N1C[C@H](Oc2ccc(C(F)(F)F)cc2)[C@@](O)(CO)C1` [Example 149, 5-fluoro-2-(((3S,4S)-3-hydroxy-3-(hydroxymethyl)-4-(4-(trifluoromethyl)phenoxy)pyrrolidin-1-yl)sulfonyl)benzonitrile]: the IC50 was 10 to 100 nM. For `N#Cc1ccc(O[C@H]2CN(S(=O)(=O)c3ccc(Cl)cn3)C[C@@]2(O)CO)cc1F` [Example 58, 4-(((3S,4R)-1-((5-chloropyridin-2-yl)sulfonyl)-4-hydroxy-4-(hydroxymethyl)pyrrolidin-3-yl)oxy)-2-fluorobenzonitrile] the value was 10 to 100 nM; for `N#Cc1ccc(O[C@H]2CN(S(=O)(=O)c3ccc(Br)cc3C#N)C[C@@]2(O)CO)cc1F` [Example 67, 4-(((3S,4R)-1-((4-bromo-2-cyanophenyl)sulfonyl)-4-hydroxy-4-(hydroxymethyl)pyrrolidin-3-yl)oxy)-2-fluorobenzonitrile], 0.1 to 10 nM; for `N#Cc1ccc(O[C@H]2CN(S(=O)(=O)c3ccc(Cl)cc3C#N)C[C@@]2(O)CN)cc1F` [Example 240, 4-(((3S,4S)-4-(aminomethyl)-1-((4-chloro-2-cyanophenyl)sulfonyl)-4-hydroxypyrrolidin-3-yl)oxy)-2-fluorobenzonitrile], 0.1 to 10 nM.

Turning to `N#Cc1cc(C(F)(F)F)ccc1S(=O)(=O)N1C[C@H](Oc2cc(F)c(C#N)c(F)c2)[C@](O)(CO)C1` [Example 20, 4-(((3S,4R)-1-((2-cyano-4-(trifluoromethyl)phenyl)sulfonyl)-4-hydroxy-4-(hydroxymethyl)pyrrolidin-3-yl)oxy)-2,6-difluorobenzonitrile], the IC50 fell in the range of 0.1 to 10 nM. The value for `Cn1ncc(Br)c1S(=O)(=O)N1C[C@H](Oc2ccc(C#N)c(F)c2)[C@](O)(CO)C1` [Example 123, 4-(((3S,4R)-1-((4-bromo-1-methyl-1H-pyrazol-5-yl)sulfonyl)-4-hydroxy-4-(hydroxymethyl)pyrrolidin-3-yl)oxy)-2-fluorobenzonitrile] was 10 to 100 nM; that for `CC(C)COc1cc(C#N)c(F)cc1O[C@H]1CN(S(=O)(=O)c2ccc(C#N)nc2)C[C@@]1(O)CO` [Example 181, 5-(((3R,4S)-4-(4-cyano-5-fluoro-2-isobutoxyphenoxy)-3-hydroxy-3-(hydroxymethyl)pyrrolidin-1-yl)sulfonyl) picolinonitrile] was 0.1 to 10 nM.

As a reminder, the IC50 is the concentration that gives 50% inhibition.

Values taken from patent US11229623B2 (GlaxoSmithKline Intellectual Property (No.2) Limited, priority 2016, dated 2022).
